Experimental findings from BindingDB's records for doi:10.1021/jm501113m (Duquesne University, 2014) are described below.

The nature of assay [1]: Inhibition of PCFT (unknown origin) expressed in Chinese hamster R2/PCFT4 cells assessed as cell growth inhibition incubated up to 96 hrs by Celltiter-blue cell viability assay. A general note: The colour change of resazurin is a common sign of viable cells or microbes.
Assay [2] can be described thus: Inhibition of FRalpha (unknown origin) expressed in Chinese hamster RT16 cells assessed as cell growth inhibition incubated up to 96 hrs in presence of 200 nM folic acid by Celltiter-blue cell viability assay.
The nature of assay [3]: Inhibition of FRbeta (unknown origin) expressed in Chinese hamster D4 cells assessed as cell growth inhibition incubated up to 96 hrs in presence of 200 nM folic acid by Celltiter-blue cell viability assay.
Assay [4] in a line: Inhibition of FRalpha (unknown origin) expressed in Chinese hamster RT16 cells assessed as cell growth inhibition incubated up to 96 hrs by Celltiter-blue cell viability assay.
Assay [5] in a line: Inhibition of RFC (unknown origin) expressed in Chinese hamster PC43-10 cells assessed as cell growth inhibition incubated up to 96 hrs by Celltiter-blue cell viability assay.
Assay [6] can be described thus: Inhibition of FRbeta (unknown origin) expressed in Chinese hamster D4 cells assessed as cell growth inhibition incubated up to 96 hrs by Celltiter-blue cell viability assay.

As to `Nc1nc2[nH]c(CCCc3ccc(C(=O)N[C@@H](CCCC(=O)O)C(=O)O)s3)cc2c(=O)[nH]1`, the IC50 in assay [1] is above 1 µM; in assay [2] it was above 1 µM; in assay [3], above 1 µM; in assay [4] it was 0.0095 µM; in assay [5], above 1 µM; in assay [6] it was 0.0036 µM.
Consider `CCC[C@H](NC(=O)c1ccc(CCCc2cc3c(=O)[nH]c(N)nc3[nH]2)s1)C(=O)O`, for which the half-inhibitory concentration (IC50) is above 1 µM in assay [1]; above 1 µM in assay [2]; above 1 µM in assay [3]; 0.056 µM in assay [4]; above 1 µM in assay [5]; above 1 µM in assay [6].
As to `Nc1nc2[nH]c(CCCc3ccc(C(=O)NCCCC(=O)O)s3)cc2c(=O)[nH]1`, the half-maximal inhibitory concentration (IC50) in assay [1] was above 1 µM; in assay [2], above 1 µM; in assay [3], above 1 µM; in assay [4], 0.027 µM; in assay [5], above 1 µM; in assay [6], above 1 µM.
Turning to `Nc1nc2[nH]c(CCCc3ccc(C(=O)N[C@@H](CC(=O)O)C(=O)O)s3)cc2c(=O)[nH]1`, the IC50 in assay [1] is above 1 µM; in assay [2] it was above 1 µM; in assay [3] it was above 1 µM; in assay [4], 0.0066 µM; in assay [5], above 1 µM; in assay [6] it was 0.347 µM.
Turning to `Nc1nc2[nH]c(CCCc3ccc(C(=O)O)s3)cc2c(=O)[nH]1`, the IC50 is above 1 µM in assay [1]; above 1 µM in assay [2]; above 1 µM in assay [3]; 0.661 µM in assay [4]; above 1 µM in assay [5]; above 1 µM in assay [6].

Broadly, the IC50 is the concentration at which inhibition is half-maximal.
